From patent US20230210999A1, “TARGETED PROTEASE DEGRADATION (TED) PLATFORM” (EUBULUS BIOTHERAPEUTICS INC., priority 2020, published 2023)

Tests used:
[1] = system: MV4;11 cells; experiment: Cell proliferation experiment (Alamar blue, 72 h), MV4;11; assay type: cell-based, human; details: Homo sapiens, MV4-11, 72 h, MV4;11 cells, 72 h; read-out: Inhibitory activity IC50 of tested compounds on MV4;11 cells
In short: (§1)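 Viability measured by Alamar blue fluorescence after 72 h culture with compound (5-fold serial dilutions, two wells each) added to log-phase cells. IC50 derived from a Min/Max/Slope logistic equation.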

[2] = system: Daudi cells; experiment: Cell proliferation experiment, Daudi; assay type: cell-based, human; details: Homo sapiens, Daudi, 72 h, Daudi cells, 72 h; read-out: Inhibitory activity IC50 of tested compounds on Daudi cells
In short: as §1

[3] = system: NCIH82 cells; experiment: Cell proliferation experiment, NCI-H82; assay type: cell-based, human; details: Homo sapiens, NCI-H82, 72 h, NCIH82 cells, 72 h; read-out: Inhibitory activity IC50 of tested compounds on NCIH82 cells
In short: as §1

[4] = system: HT-29 cells; experiment: Cell proliferation experiment, HT-29; assay type: cell-based; details: Homo sapiens; HT-29 cells, 72 h; read-out: Inhibitory activity IC50 of tested compounds on HT-29 cells
Method: (§2) Reagents: RPMI-1640 medium, McCoy's 5A medium, IMDM medium, MEM medium, L-15 medium, fetal bovine serum. Penicillin-Streptomycin double antibody, trypsin, etc., 2-mercaptoethanol, NEAA, pyruvate, etc.
(§3) The cells were cultured in conventional ways, and the cells should be passed at least 2 generations before plating. Cells at the logarithmic growth phase were collected, prepared into single cell suspensions and counted. The concentration of cells was adjusted to the desired concentration, and cells were inoculated into a 96-well cell culture plate at 100 μl per well. 100 μL of complete medium of the test compound were added to each well, set up 2 duplicate wells for each concentration, and diluted with a 5-fold gradient, and continued to culture for 72 h. All cells were subjected to IC50 test for corresponding samples. The experimental results are shown in Test Example 4.
(§4) The fluorescence intensity of each well was detected using the Alarm blue method, and IC50 was calculated.
(§5) IC50 was calculated according to the following formula:
(§6) Y=Max+(Min−Max)/[1+(X/IC50)×Slope]
(§7) wherein Min, Max and Slope represent the minimum, maximum and slope respectively.

[5] = system: U-87MG cells; experiment: Cell proliferation experiment, U-87MG; assay type: cell-based; details: Homo sapiens; U-87MG cells, 72 h; read-out: Inhibitory activity IC50 of tested compounds on U-87MG cells
Method: as §2, §3, §4, §5, §6, §7

Row | Structure (SMILES) | IC50 [1] | IC50 [2] | IC50 [3] | IC50 [4] | IC50 [5]
1 | CC[C@@H]1C(=O)N(C)c2cnc(Nc3ccc(C(=O)NC4CCN(CCOCCN5CC(Nc6cccc7c6C(=O)N(C6CCC(=O)NC6=O)C7=O)C5)CC4)cc3OC)nc2N1C1CCCC1 (some centres unmarked) [Compound 868] | 100 to 1000 nM | 100 to 1000 nM | ≤ 1000 nM | > 1000 nM | 500 to 1000 nM
2 | CC[C@@H]1C(=O)N(C)c2cnc(Nc3ccc(C(=O)NC4CCN(CCOC[C@@H](N)C(=O)Nc5cccc6c5CN(C5CCC(=O)NC5=O)C6=O)CC4)cc3OC)nc2N1C1CCCC1 (some centres unmarked) [Compound 870] | 100 to 1000 nM | > 1000 nM | > 1000 nM | > 1000 nM | > 1000 nM
3 | CC[C@@H]1C(=O)N(C)c2cnc(Nc3ccc(C(=O)NC4CCN(CCOCCOC[C@H](N)C(=O)Nc5cccc6c5CN(C5CCC(=O)NC5=O)C6=O)CC4)cc3OC)nc2N1C1CCCC1 (some centres unmarked) [Compound 871] | 100 to 1000 nM | > 1000 nM | ≤ 1000 nM | > 1000 nM | > 1000 nM
4 | CC[C@@H]1C(=O)N(C)c2cnc(Nc3ccc(C(=O)NC4CCN(CCOCCOC[C@@H](N)C(=O)Nc5cccc6c5CC(C5CCC(=O)NC5=O)C6=O)CC4)cc3OC)nc2N1C1CCCC1 (some centres unmarked) [Compound 872] | 100 to 1000 nM | > 1000 nM | ≤ 1000 nM | > 1000 nM | > 1000 nM
5 | CC[C@@H]1C(=O)N(C)c2cnc(Nc3ccc(C(=O)NCCCNCCOCCCC#Cc4cccc5c4CN(C4CCC(=O)NC4=O)C5=O)cc3OC)nc2N1C1CCCC1 (some centres unmarked) [Compound 881] | 100 to 1000 nM | > 1000 nM | > 1000 nM | > 1000 nM | > 1000 nM
6 | CC[C@@H]1C(=O)N(C)c2cnc(Nc3ccc(C(=O)NC4CCN(CCCCN(C)CCC#Cc5cccc6c5CN(C5CCC(=O)NC5=O)C6=O)CC4)cc3OC)nc2N1C1CCCC1 (some centres unmarked) [Compound 910] | ≤ 100 nM | ≤ 100 nM | ≤ 1000 nM | ≤ 300 nM | 100 to 500 nM
7 | CC[C@@H]1C(=O)N(C)c2cnc(Nc3ccc(C(=O)NC4CCN(CCCN(C)CCCOCCCC#Cc5cccc6c5CN(C5CCC(=O)NC5=O)C6=O)CC4)cc3OC)nc2N1C1CCCC1 (some centres unmarked) [Compound 911] | ≤ 100 nM | ≤ 100 nM | ≤ 1000 nM | 300 to 1000 nM | ≤ 100 nM
8 | CC[C@@H]1C(=O)N(C)c2cnc(Nc3ccc(C(=O)NCCCOCCCNCCC#Cc4cccc5c4CN(C4CCC(=O)NC4=O)C5=O)cc3OC)nc2N1C1CCCC1 (some centres unmarked) [Compound 912] | ≤ 100 nM | ≤ 100 nM | ≤ 1000 nM | 300 to 1000 nM | ≤ 100 nM
9 | CC[C@@H]1C(=O)N(C)c2cnc(Nc3ccc(C(=O)NCCCOCCCN(C)CCC#Cc4cccc5c4CN(C4CCC(=O)NC4=O)C5=O)cc3OC)nc2N1C1CCCC1 (some centres unmarked) [Compound 913] | ≤ 100 nM | ≤ 100 nM | ≤ 1000 nM | 300 to 1000 nM | ≤ 100 nM
10 | CC[C@@H]1C(=O)N(C)c2cnc(Nc3ccc(C(=O)NC4CCN(CCCOCCCN(C)CCC#Cc5cccc6c5CN(C5CCC(=O)NC5=O)C6=O)CC4)cc3OC)nc2N1C1CCCC1 (some centres unmarked) [Compound 914] | ≤ 100 nM | ≤ 100 nM | ≤ 1000 nM | ≤ 300 nM | 100 to 500 nM
11 | CC[C@@H]1C(=O)N(C)c2cnc(Nc3ccc(C(=O)NC4CCN(CCOCCCNCCCC#Cc5cccc6c5CN(C5CCC(=O)NC5=O)C6=O)CC4)cc3OC)nc2N1C1CCCC1 (some centres unmarked) [Compound 915] | ≤ 100 nM | ≤ 100 nM | ≤ 1000 nM | 300 to 1000 nM | 100 to 500 nM
12 | CC[C@@H]1C(=O)N(C)c2cnc(Nc3ccc(C(=O)NC4CCN(CCOCCCN(C)CCC#Cc5cccc6c5CN(C5CCC(=O)NC5=O)C6=O)CC4)cc3OC)nc2N1C1CCCC1 (some centres unmarked) [Compound 916] | ≤ 100 nM | ≤ 100 nM | ≤ 1000 nM | ≤ 300 nM | 100 to 500 nM
13 | CC[C@@H]1C(=O)N(C)c2cnc(Nc3ccc(C(=O)NC4CCN(CCCOCCCNCCCC#Cc5cccc6c5CN(C5CCC(=O)NC5=O)C6=O)CC4)cc3OC)nc2N1C1CCCC1 (some centres unmarked) [Compound 917] | ≤ 100 nM | ≤ 100 nM | ≤ 1000 nM | 300 to 1000 nM | 100 to 500 nM

Continued, values first:

Row | IC50 [1] | IC50 [2] | IC50 [3] | IC50 [4] | IC50 [5] | Structure (SMILES)
14 | ≤ 100 nM | ≤ 100 nM | ≤ 1000 nM | ≤ 300 nM | ≤ 100 nM | CC[C@@H]1C(=O)N(C)c2cnc(Nc3ccc(C(=O)NC4CCN(CCO)CC4)cc3OC)nc2N1C1CCCC1 [Compound 865]
15 | ≤ 100 nM | ≤ 100 nM | ≤ 1000 nM | ≤ 300 nM | 100 to 500 nM | CC[C@@H]1C(=O)N(C)c2cnc(Nc3ccc(C(=O)NC4CCN(CCOCCN)CC4)cc3OC)nc2N1C1CCCC1 [Compound 866]
16 | ≤ 100 nM | ≤ 100 nM | ≤ 1000 nM | 300 to 1000 nM | 500 to 1000 nM | CC[C@@H]1C(=O)N(C)c2cnc(Nc3ccc(C(=O)NC4CCN(CCOCCNC5(C(=O)Nc6cccc7c6CN(C6CCC(=O)NC6=O)C7=O)CC5)CC4)cc3OC)nc2N1C1CCCC1 (some centres unmarked) [Compound 867]
17 | ≤ 100 nM | 100 to 1000 nM | ≤ 1000 nM | > 1000 nM | 100 to 500 nM | CC[C@@H]1C(=O)N(C)c2cnc(Nc3ccc(C(=O)NC4CCN(CCOCCNCC(O)C#Cc5cccc6c5CN(C5CCC(=O)NC5=O)C6=O)CC4)cc3OC)nc2N1C1CCCC1 (some centres unmarked) [Compound 869]
18 | ≤ 100 nM | 100 to 1000 nM | ≤ 1000 nM | ≤ 300 nM | 100 to 500 nM | CC[C@@H]1C(=O)N(C)c2cnc(Nc3ccc(C(=O)NC4CCN(CCOCCNCC#Cc5cccc6c5CN(C5CCC(=O)NC5=O)C6=O)CC4)cc3OC)nc2N1C1CCCC1 (some centres unmarked) [Compound 873]
19 | ≤ 100 nM | 100 to 1000 nM | > 1000 nM | > 1000 nM | 100 to 500 nM | CC[C@@H]1C(=O)N(C)c2cnc(Nc3ccc(C(=O)NC4CCN(C[C@H](N)COCC#Cc5cccc6c5CN(C5CCC(=O)NC5=O)C6=O)CC4)cc3OC)nc2N1C1CCCC1 (some centres unmarked) [Compound 876]
20 | ≤ 100 nM | 100 to 1000 nM | ≤ 1000 nM | 300 to 1000 nM | ≤ 100 nM | CC[C@@H]1C(=O)N(C)c2cnc(Nc3ccc(C(=O)NCCCOCCOCCCNCCC#Cc4cccc5c4CN(C4CCC(=O)NC4=O)C5=O)cc3OC)nc2N1C1CCCC1 (some centres unmarked) [Compound 882]
21 | ≤ 100 nM | 100 to 1000 nM | > 1000 nM | > 1000 nM | 100 to 500 nM | CC[C@@H]1C(=O)N(C)c2cnc(Nc3ccc(C(=O)NCCCNCCOCCC#Cc4cccc5c4CN(C4CCC(=O)NC4=O)C5=O)cc3OC)nc2N1C1CCCC1 (some centres unmarked) [Compound 885]
22 | ≤ 100 nM | 100 to 1000 nM | > 1000 nM | > 1000 nM | ≤ 100 nM | CC[C@@H]1C(=O)N(C)c2cnc(Nc3ccc(C(=O)NCCCN(C)CCOCCC#Cc4cccc5c4CN(C4CCC(=O)NC4=O)C5=O)cc3OC)nc2N1C1CCCC1 (some centres unmarked) [Compound 886]
23 | ≤ 100 nM | 100 to 1000 nM | > 1000 nM | > 1000 nM | 100 to 500 nM | CC[C@@H]1C(=O)N(C)c2cnc(Nc3ccc(C(=O)NCCOCCOCCCNCCC#Cc4cccc5c4CN(C4CCC(=O)NC4=O)C5=O)cc3OC)nc2N1C1CCCC1 (some centres unmarked) [Compound 894]
24 | ≤ 100 nM | > 1000 nM | > 1000 nM | > 1000 nM | 100 to 500 nM | CC[C@@H]1C(=O)N(C)c2cnc(Nc3ccc(C(=O)NCCCNCCOCCOCCC#Cc4cccc5c4CN(C4CCC(=O)NC4=O)C5=O)cc3OC)nc2N1C1CCCC1 (some centres unmarked) [Compound 898]
25 | ≤ 100 nM | 100 to 1000 nM | ≤ 1000 nM | 300 to 1000 nM | 100 to 500 nM | CC[C@@H]1C(=O)N(C)c2cnc(Nc3ccc(C(=O)NC4CCN(CCCOCCCNCCC#Cc5cccc6c5CN(C5CCC(=O)NC5=O)C6=O)CC4)cc3OC)nc2N1C1CCCC1 (some centres unmarked) [Compound 906]
26 | ≤ 100 nM | ≤ 100 nM | ≤ 1000 nM | 300 to 1000 nM | 100 to 500 nM | CC[C@@H]1C(=O)N(C)c2cnc(Nc3ccc(C(=O)NC4CCN(CCCNCCOCCCC#Cc5cccc6c5CN(C5CCC(=O)NC5=O)C6=O)CC4)cc3OC)nc2N1C1CCCC1 (some centres unmarked) [Compound 907]
27 | ≤ 100 nM | ≤ 100 nM | ≤ 1000 nM | 300 to 1000 nM | 100 to 500 nM | CC[C@@H]1C(=O)N(C)c2cnc(Nc3ccc(C(=O)NC4CCN(CCOCCCNCCC#Cc5cccc6c5CN(C5CCC(=O)NC5=O)C6=O)CC4)cc3OC)nc2N1C1CCCC1 (some centres unmarked) [Compound 908]
28 | ≤ 100 nM | ≤ 100 nM | ≤ 1000 nM | ≤ 300 nM | ≤ 100 nM | CC[C@@H]1C(=O)N(C)c2cnc(Nc3ccc(C(=O)NC4CCN(CCCCNCCC#Cc5cccc6c5CN(C5CCC(=O)NC5=O)C6=O)CC4)cc3OC)nc2N1C1CCCC1 (some centres unmarked) [Compound 909]
